These results are taken from patent publication US10526283B2, “Prodrugs of dithiol mucolytic agents” (PARION SCIENCES, INC., priority 2015, dated 2020).

Where a name gives a salt, the structure may show the parent alone. Where only a bound is given, the exact number is not on record here.

Data set [1] in a line: Pro-drug DTNB assay without enzyme (reducing activity). The format is biochemical. Conditions: for reducing activity in DTNB assay without enzyme: no esterase added. The text has this:
(§1) This assay was designed to determine whether prodrug caps added on to our dithiol mucolytic compounds can be cleaved from the molecule. If so, the outcome would be an “active” compound that is able to reduce the S—S bond in DTNB. When cleaved the resulting compound, NTB (2-nitro-5-thiobenzoate), is a colored product that can be measured spectrophotometrically at an absorbance of 412 nm (Abs412). Using the molar extinction coefficient of NTB and measured maximum Abs412, the molar amount of DTNB that reacted with our mucolytic agents can be calculated. Dithiol mucolytic compounds react at a 2:1 stoichiometric ratio with DTNB (i.e. 2 molecules of NTB are produced for every one molecule of a dithiol compound that is oxidized). Dithiol prodrugs were mixed at a final concentration of 22.5 μM with excess DTNB (100 μM final) in 1 mL 50 mM Tris-HCl buffer (pH 7.5) and maximum Abs412 was measured. In the absence of a purified hydrolytic enzyme (e.g. porcine liver esterase; Sigma), the amount of DTNB cleavage observed is an indicator for stability of the cap on the prodrug compound (i.e. if the prodrug remains intact in solution the Abs412=0). Next, 5 uL of esterase (bought as an ammonium sulfate suspension that is subsequently centrifuged to isolate the esterase and then dissolved in reaction buffer prior to assaying) is combined with excess DTNB (100 μM final) and 22.5 μM pro-drug in 1 mL 50 mM Tris-HCl buffer (pH 7.5). Cleavage of the prodrug cap can be visualized in real time via DTNB cleavage at Abs412 by the esterase-liberated dithiol molecule.

The test system of data set [2] is human bronchial epithelial cells (HBE). In words: HBE ADME assay. The format is in vitro ADME. The conditions noted are these: four hours post-dose. The protocol: This assay was designed to determine if our dithiol prodrug compounds would be retained on the apical surface of human bronchial epithelial cells (HBE) (i.e. they are predominately cell impermeant) and if the compounds could be metabolized to their active forms (i.e. are there relevant hydrolytic enzymes present). Towards this goal, 15 μL of 10 mM dithiol prodrug compound was added to the apical surface of HBEs. At indicated time points, mucus from the apical surface was isolated with a PBS wash that contained 10-fold excess of N-ethylmaleimide in order to alkylate any remaining active compound and to prevent further mucin reduction. In addition the HBE cells and basolateral media were isolated at each time point. The form (e.g., prodrug, active metabolite, oxidized metabolite) and location (apical, cellular, basolateral media) of each compound was analyzed by LC-MS.

In the next data set the test system is esterase. In words: Pro-drug DTNB assay after incubation with esterase. The format is biochemical, porcine. The conditions noted are these: for dependence of activation on amount of esterase: varying amounts of esterase.
Description: as §1

The target in data set [3] is T1, Muc5B (Homo sapiens, UniProt Q9HC84).
T1 construct: 68, 70a/b and 76 all reduce MUC5B in human mucus samples; from tissue; host or cells: human mucus samples
In words: MUC5B reduction in human mucus samples. The format is biochemical. An excerpt: (§2) This assay tests whether mucin has been reduced by mucolytic compounds. Various mucin-containing substrates (e.g. saliva, primary human bronchial epithelial (HBEs) cell mucus (either on cultures or harvested), and sputum) treated with our dithiol mucolytic compounds are quenched upon completion of the treatment period with a 10-fold excess of N-ethylmaleimide in order to alkylate any remaining active compound and to prevent further mucin reduction. A 10× concentrated sample loading buffer is diluted into each sample (lx TAE/5% glycerol/0.1% SDS/Bromophenol Blue). Samples (50 μg) were analyzed by electrophoresis on 0.9% agarose gels using a buffer system consisting of 1×TAE/0.1% SDS. The agarose gel was soaked for 15 min in 4×SSC (0.6 M NaCl, 60 mM Tri-sodium citrate dehydrate) containing 10 mM DTT before transferring the samples from the gel onto a nitrocellulose membrane by vacuum blotter. Unreduced and reduced Muc5B and Muc5AC were visualized on a LiCor Odyssey imaging detection system using a polyclonal antibody directed towards Muc5B.

A further data set deals with T2, Muc5AC (Homo sapiens, UniProt P98088).
T2 construct: endogenous in cells; host or cells: primary human bronchial epithelial (HBE) cultures
In words: Western blot analysis of HBE mucus, Muc5AC. Conditions: single treatment, 10 mM. The format is cell-based.
Description: as §2
In general terms: Immunoblotting shows a protein as a band on a membrane.

Data set [4] is described as follows: Stability of capped and uncapped compounds tested with DTNB. Conditions: 4 days at room temperature; tested before and after incubation with esterase. The format is physicochemical. An excerpt:
This assay was designed to determine whether prodrug caps added on to our dithiol mucolytic compounds can be cleaved from the molecule. If so, the outcome would be an “active” compound that is able to reduce the S—S bond in DTNB. When cleaved the resulting compound, NTB (2-nitro-5-thiobenzoate), is a colored product that can be measured spectrophotometrically at an absorbance of 412 nm (Abs412). Using the molar extinction coefficient of NTB and measured maximum Abs412, the molar amount of DTNB that reacted with our mucolytic agents can be calculated. Dithiol mucolytic compounds react at a 2:1 stoichiometric ratio with DTNB (i.e. 2 molecules of NTB are produced for every one molecule of a dithiol compound that is oxidized). Dithiol prodrugs were mixed at a final concentration of 22.5 μM with excess DTNB (100 μM final) in 1 mL 50 mM Tris-HCl buffer (pH 7.5) and maximum Abs412 was measured. In the absence of a purified hydrolytic enzyme (e.g. porcine liver esterase; Sigma), the amount of DTNB cleavage observed is an indicator for stability of the cap on the prodrug compound (i.e. if the prodrug remains intact in solution the Abs412=0). […]

In data set [5] the target is T1, Muc5B. In words: Western blot analysis of HBE mucus, Muc5B. The format is cell-based. Conditions: single treatment, 10 mM.
Description: as §2

A short description of data set [6]: Elimination of inhaled 14C-labeled NAC from the lungs in animal studies. The format is in vivo. The conditions noted are these: inhaled or intranasal, administered by inhalation, animal studies (unpublished observation).
In a further data set the test system is human aminopeptidase. In words: DTNB assay after incubation with human aminopeptidase. The format is biochemical. Conditions: over an hour incubation, two concentrations of human aminopeptidase.

Turning to `CC(=O)SCc1ccc(OCCN(C[C@@H](O)[C@@H](O)[C@H](O)[C@H](O)CO)C[C@@H](O)[C@@H](O)[C@H](O)[C@H](O)CO)cc1CSC(C)=O` [Compound 68, S,S′-((4-(2-(bis((2R,3R,4R,5R)-2,3,4,5,6-pentahydroxyhexyl)amino)ethoxy)-1,2-phenylene)bis(methylene)) diethanethioate hydrochloride], the “reducing activity in DTNB assay without enzyme” value in [1] was “does not reduce the disulfide bonds”. In data set [2], the “metabolism and oxidation on the apical surface of HBE cultures” value was “substantially metabolized and oxidized”; the “retention on the apical cell surface of HBE cultures” value was “substantially maintained on the apical cell surface”. Besides, the “dependence of activation on amount of esterase” value (from here on “dependence of activation”) with esterase was “concentration dependent increase in reaction rates”. The “reduction of MUC5B in human mucus samples” value on Muc5B [3] is recorded as “reduce MUC5B”.

For the compound `CC(=O)SCc1ccccc1CSC(C)=O` [Compound 13, S,S′-(1,2-phenylenebis(methylene)) diethanethioate], in the data set on esterase (DTNB assay), the “amount of esterase giving full activation” value is on record as no less than 0.015 units. For the same compound, the “activation by esterase in DTNB assay” value in the data set on esterase (high concentration of esterase) is reported as “fully activated immediately”; with esterase (low concentration of esterase, 15 min incubation) it was “near fully activated”. In the data set with esterase, the “dependence of activation” value is “Increasing amounts of esterase correlated with increasing activation”.

As for `Cl.OC[C@@H](O)[C@@H](O)[C@H](O)[C@H](O)CN(CCOc1ccc(CS)c(CS)c1)C[C@@H](O)[C@@H](O)[C@H](O)[C@H](O)CO` [Compound 76, (2R,2′R,3R,3′R,4R,4′R,5R,5′R)-6,6′-((2-(3,4-bis(mercaptomethyl)phenoxy)ethyl)azanediyl)bis(hexane-1,2,3,4,5-pentaol) hydrochloride], the “time to fully reduce all available disulfides” value in data set [1] (no enzyme) was less than 10 s. Also, the “reduction of MUC5B in human mucus samples” value at Muc5B [3] is “reduce MUC5B”.

On to `CC(=O)SCc1ccc(OCCN(C[C@H](O)[C@@H](O)[C@H](O)[C@H](O)CO)C[C@H](O)[C@@H](O)[C@H](O)[C@H](O)CO)cc1CSC(C)=O` [Compound 23, S,S′-((4-(2-(bis((2S,3R,4R,5R)-2,3,4,5,6-pentahydroxyhexyl)amino)ethoxy)-1,2-phenylene)bis(methylene)) diethanethioate], for which, on Muc5AC, the “reduction of Muc5AC on the apical surface of HBE cultures” value was “reduced”. The “stability against oxidation tested with DTNB” value in data set [4] is reported as “prevents some but not all oxidation”. On Muc5B [5], the “reduction of Muc5B on the apical surface of HBE cultures” value was “reduced”. Also, the “dependence of activation” value with esterase is “Increasing amounts of esterase increased activation”.

One may read the half-life as the time in which the quantity being followed falls by half. For the compound `CC(=O)N[C@@H](CS)C(=O)O` [NAC, N-acetyl cysteine], in data set [6], the half-life was roughly 20 min.

With “S-4-(2-(bis((2R,3R,4R,5R)-2,3,4,5,6-pentahydroxyhexyl)amino)ethoxy)-2-(mercaptomethyl)benzyl ethanethioate hydrochloride and S-5-(2-(bis((2R,3R,4R,5R)-2,3,4,5,6-pentahydroxyhexyl)amino)ethoxy)-2-(mercaptomethyl)benzyl ethanethioate hydrochloride [70a/b]”, the “reduction of MUC5B in human mucus samples” value at Muc5B [3] is given as “reduce MUC5B”.

Consider `CC(=O)SCc1cc(OCCNC(=O)[C@@H](N)CCCCN)c(OCCNC(=O)[C@@H](N)CCCCN)cc1CSC(C)=O` [Compound 11, S,S′-((4,5-bis(2-((S)-2,6-diaminohexanamido)ethoxy)-1,2-phenylene)bis(methylene)) diethanethioate hydrochloride], for which the “reducing activity in DTNB assay without enzyme” value in [1] was “remained inactive”. The “activation by esterase in DTNB assay” value with esterase (low and high concentration of esterase, approximately 15 min incubation) is “activated compound 11 to a similar level as compound 41”.

Regarding `NCCCC[C@H](N)C(=O)SCc1ccccc1CSC(=O)[C@@H](N)CCCCN` [Compound 35, (2S,2′S)—S,S′-(1,2-phenylenebis(methylene)) bis(2,6-diaminohexanethioate)HCl salt], the “activation by aminopeptidase in DTNB assay” value in the data set on human aminopeptidase is reported as “does not completely activate the compound”.
